Source: patent publication US20120277177A1, “CRYSTALLINE PHASES OF 5,6-DICHLORO-2-(ISOPROPYLAMINO)-1-BETA-RIBOFURANOSYL-1H-BENZIMIDAZOLE” (priority 2010, published 2012)

Test: Solid-state stability on storage in the well-plate under ambient temperature and relative humidity
Format: physicochemical
Details: for form change (desolvation / transformation) after storage: storage in the well-plate under ambient temperature and relative humidity for approximately 3 weeks
Text: The invention relates to the anhydrate crystalline Form VIII, hydrates and solvates both in pure form and in admixture with other anhydrate forms, hydrates or solvates of the compound of formula (I).

Row | form change (transformation) after storage (approximately 4 weeks of storage under ambient conditions) | Structure (SMILES) | form change (desolvation / transformation) after storage
1 | partially transformed into Form VI | CC(C)Nc1nc2cc(Cl)c(Cl)cc2n1[C@H]1O[C@@H](CO)[C@H](O)[C@@H]1O [t-butylmethyl ether solvate 2, 5,6-dichloro-2-(isopropylamino)-1-(β-L-ribofuranosyl)-1H-benzimidazole] | 
2 |  | CC(C)Nc1nc2cc(Cl)c(Cl)cc2n1[C@H]1O[C@@H](CO)[C@H](O)[C@@H]1O [n-propyl acetate solvate, 5,6-dichloro-2-(isopropylamino)-1-(β-L-ribofuranosyl)-1H-benzimidazole] | partially desolvated and transformed to the anhydrate Form VI
3 |  | CC(C)Nc1nc2cc(Cl)c(Cl)cc2n1[C@H]1O[C@@H](CO)[C@H](O)[C@@H]1O [acetonitrile solvate, 5,6-dichloro-2-(isopropylamino)-1-(β-L-ribofuranosyl)-1H-benzimidazole] | completely desolvated and transformed to the anhydrate Form V
